Consider one molecule from patent US20250339091A1, “HONEY BEE-DERIVED BIOACTIVE WOUND DRESSING WITH SUSTAINED ANTIMICROBIAL RELEASE” (priority 2025, published 2025).

Molecules are shown by their SMILES.

This series is described as follows: fluorescent dye diffusion assays in simulated wound fluid. It is filed as physicochemical. As for the experimental part:
For example, in experiments using rhodamine B as a tracer molecule, diffusion coefficients within the patterned hydrogel matrix increased from 1.4×10^−7 cm^2/s at 35° C. to 3.6×10^−7 cm^2/s at 37.5° C., confirming the gating effect of the thermoresponsive architecture. The permeability enhancement facilitates more rapid passive diffusion of bioactive agents—such as hydrogen peroxide from raw honey or flavonoids from propolis extract—from the surrounding microcapsules into the wound site, even before active actuator-based release is triggered. This early-stage, temperature-coupled passive transport acts as a preemptive therapeutic buffer, delivering antimicrobials during acute inflammatory flares while reducing latency between pathogenic escalation and drug availability.

For the molecule `CCN(CC)c1ccc2c(-c3ccccc3C(=O)O)c3ccc(=[N+](CC)CC)cc-3oc2c1.[Cl-]` [rhodamine B], the “diffusion coefficient within the patterned hydrogel matrix” value (at 35° C.) is 1.4×10^−7 cm^2/s and the “diffusion coefficient within the patterned hydrogel matrix” value (at 37.5° C.) is 3.6×10^−7 cm^2/s.
